Assay results: patent publication US6846826B2, “Phenoxypropanol connected with phenylpiperazine and phenoxyalkylamine terminal in its side chain” (priority 2001, dated 2005)

Legend:
[1] = Heart rate and blood pressure in living rat (anaesthetized, i.v.); assay type: in vivo, Wistar rat; details: via femoral vein, dose not given (method: 0.5; 1.0; 3.0 mg/kg)
Source text: Male Wistar rats, weighing 200˜300 g were abdominal anaesthetized with pentobarbital sodium. Tracheal was cannulated to maintain normal respiration. Polyethylene tube (inside diameter 0.58 mm, outside diameter 0.97 mm) was inserted into the left femoral vein to facilitate drug administration. A 3-way stopcock was used, with one end connected to a syringe for drug injection, while the other end was connected to the syringe filled with physiological saline. The latter was used to prevent residual drugs in the polyethylene tube after injection, which would affect experimental accuracy.
The right femoral artery was also inserted with polyethylene, and a 3-way stopcock was used tool, where one end was connected to heparin solution to prevent embolism. The other end was connected to a Disposable Diaphragm Dome, TA10019, and linked to a transducer. Through an amplifier, a recorder recorded the overall and average arterial pressure; heart rate to evaluate the effect of drug on blood pressure and heart rate. Different concentrations 0.5; 1.0; 3.0 mg/kg of compounds were given to the rats via femoral vein and the differences in the heart rate and blood pressure were compared. Furthermore in another group, test compounds of concentration 0.5; 1.0; 3.0 mg/kg were separately given to different rats via femoral vein, and the differences in the heart rate and blood pressure were compared.

β1 [2] = biological target: T1, β1 (Rattus norvegicus, UniProt P18090); assay: Isolated rat right atrium, antagonism of L-isoproterenol-induced rate increase (Schild plot); details: for β1 pA2 value, Right atrium: vs L-isoproterenol, mean ± S.E. of six to eight
T1 construct: The right and left atria were then separated; from tissue; host or cells: isolated rat right atrium (spontaneously beating) and left atrium (electrically driven)
T1 sequence (P18090 whole entry): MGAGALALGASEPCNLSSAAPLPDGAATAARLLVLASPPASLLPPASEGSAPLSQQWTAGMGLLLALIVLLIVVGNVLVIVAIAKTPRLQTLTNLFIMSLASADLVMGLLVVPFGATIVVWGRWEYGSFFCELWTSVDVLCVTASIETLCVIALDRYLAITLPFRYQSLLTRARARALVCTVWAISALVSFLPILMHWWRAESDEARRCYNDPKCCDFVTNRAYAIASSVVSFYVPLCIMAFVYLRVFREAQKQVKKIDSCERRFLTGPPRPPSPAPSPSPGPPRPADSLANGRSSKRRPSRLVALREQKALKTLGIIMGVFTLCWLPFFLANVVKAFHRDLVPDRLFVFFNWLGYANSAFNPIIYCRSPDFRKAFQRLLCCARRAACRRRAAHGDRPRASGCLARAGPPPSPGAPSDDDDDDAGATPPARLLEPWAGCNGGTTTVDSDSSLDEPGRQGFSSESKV
Protocol: The entire heart of rat (weighing 200˜300 g) was removed immediately after the rat was sacrificed and the blood drained by incised carotid arteries, and placed in Kreb's solution equilibrated to a mixture of 95% O2 and 5% CO2 at room temperature (20˜25° C.). The right and left atria were then separated.
The spontaneously-beating right atria was clipped on both end by heart shaped clips, where one end was fixed at the bottom of 10 ml of tissue bath made of physiological saline solution, and temperature maintained at 37° C. The other end of the atria was connected to a force transducer, and isometric contractions and beating rate of the right atria were recorded by COULBOURN AT-High-Speed VideoFigure. After the samples were given 250 mg of contractions and reach equilibrium the following experiments were carried out:
(§1) When the spontaneously beating rate of right atria reached a certain stability, cumulative administration of L-isoproterenol from 1×10^−[…] M caused the heart rate to increase continuously, and a cumulative dose-response curve was obtained. Then the L-isoproterenol was thoroughly washed off with Kreb's solution to recover the right atria's heart rate stability. After the equilibrum was reached again for at least 60 minutes, different concentrations (10^−7, 10^−6, 10^−5 M) of compounds were added. 30 minutes later, cumulative administration of L-isoproterenol from […] were carried out again, and another new cumulative dose-response curve was obtained. Administration of L-isoproterenol started from concentration 1×10^−10 M, and the concentration was raised 0.5 log each time for a total of six times. Cumulative administration interval was when the previous concentration reached its greatest effect, the next concentration would be immediately given. The time interval was approximately 3˜5 minutes, and the EC50 value could be obtained. From Schild plots, the pA2 of compounds could be found. In other groups of rats, after separate administration of test compounds, their pA2 values were obtained.
(§2) According to the method mentioned by Arunlakshana, O. et al.(Br. J. Pharmacol. Vol.14, pp. 48-57, 1959), which used the logarithm values of compound concentration testings as the x-coordinates, and the logarithm values of blocking agent of similar effect and […] as the y-coordinates, the data obtained were plotted into Figures and the slope of regression found. From x-coordinates of the line of regression, the intercept value was found, which is the pA2 value of the compound under testing. The equation is as follows: [formula] [formula] • [B]=Test compound concentration in moles • KB: equilibrium dissociation constant • n: value of slope • DR: test EC50 divided by control EC50 • CF: EC50 of second or third control groups divided by EC50 of first control group

β1 [3] = biological target: T1, β1; assay: Isolated rat left atrium (electrically driven), antagonism of L-isoproterenol (Schild plot); details: for β1 pA2 value, Left atrium: vs L-isoproterenol, mean ± S.E. of six to eight
Protocol: as §1, §2
The inspontaneously-beating left atrial tissue was obtained from rat's isolated right atrial tissue experiments. […] The contraction rate was 2 Hz and the resting tension 0.5 gm. After 60 minutes of equilibration, the following experiments were performed: • (a) Completion of cumulative concentration-response curve: similar to experimental method on isolated right atrium; • (b) Calculation of pA2 value: similar to calculation method on isolated right atrium.

β2 = biological target: T2, β2 (Cavia porcellus, UniProt Q8K4Z4); assay: Isolated guinea pig trachea, antagonism of L-isoproterenol relaxation (Schild plot); details: for β2 pA2 value, Trachea: vs L-isoproterenol, mean ± S.E. of six to eight
T2 construct: a portion of tracheal approximately 4 cm long was removed; from tissue; host or cells: isolated guinea pig trachea (reserpinised animals)
T2 sequence (Q8K4Z4 whole entry): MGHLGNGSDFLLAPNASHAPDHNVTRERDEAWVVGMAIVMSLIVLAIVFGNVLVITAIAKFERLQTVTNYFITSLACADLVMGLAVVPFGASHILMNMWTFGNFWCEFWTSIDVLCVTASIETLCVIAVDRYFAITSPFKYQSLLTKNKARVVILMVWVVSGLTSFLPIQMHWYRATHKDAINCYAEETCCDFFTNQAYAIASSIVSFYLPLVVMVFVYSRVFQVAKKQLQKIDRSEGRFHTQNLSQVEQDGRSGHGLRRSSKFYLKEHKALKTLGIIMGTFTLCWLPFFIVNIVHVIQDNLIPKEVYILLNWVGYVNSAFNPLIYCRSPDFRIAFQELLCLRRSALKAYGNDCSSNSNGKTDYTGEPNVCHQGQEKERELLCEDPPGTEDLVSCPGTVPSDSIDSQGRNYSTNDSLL
Protocol: Guinea pigs of weight between 250˜350 gm were used.
After the guinea pigs were sacrificed, a slit was made along the neck, and a portion of tracheal approximately 4 cm long was removed. The tracheal was then placed in Kreb's solution aerated with a mixture of 95% O2 and 5% CO2 and maintained at room temperature about 22˜25° C. […] The two ends of the tracheal were clamped with frog-heart shaped clamps, one end was fixed at the bottom of tissue bath filled with 200 ml of Kreb's solution, maintained at 37° C., while the other end was connected to a force transducer. Through a COULBOURN AT-High-Speed Videograph, long isometric contractions were recorded. After the sample was given 1.5 gm of tension and equilibrated, the following experiments were performed:
Then the tracheal was repeatedly washed with Kreb's solution for 20 minutes and […] of carbochol was added to cause contraction in the guinea pig's tracheal. When the contraction reached the maximum, every division of tracheal was used to complete two concentration response curve of L-isoproternol, one of them without administration of test compound and used as control; while the other curve was administered with 10^−7, 10^−6 and 10^−5 M test compounds for 30 minutes before concentration response curve was completed. This is the test group.
Similar to the calculation method for isolated right atrium experiment.

α1 = assay: Isolated Wistar rat thoracic aorta, antagonism of norepinephrine contraction (Schild plot); details: vs norepinephrine, mean ± S.E. of six to eight
Protocol: (§3) After sacrificing Wistar rat of weight between 200˜300 gm, the thoracic aorta was immediately removed and placed in cold Kreb's solution. The fatty connecting tissue surrounding the vessel wall was removed and the thoracic aorta was cut into rings of length 5 mm. The two ends of each ring was pieced and fixed with “Z” shaped platinum wires. Then the thoracic aorta was suspended in 10 ml of tissue bath, aerated with air mixture (95% O2+5% CO2) and maintained at 37° C., where one end was fixed at the bottom of tissue trough, the other end connected to force transducer to record the long contraction via recorder. The sample was given 1 gm of tension and equilibrated for 60 minutes before the following experiments were carried out.
After thoracic aorta had reached equilibrium in the tissue trough, cumulative administration of norepinephrine from 10^−10˜3×10^−4 M caused the blood vessel contract to increase tension continuously, and a cumulative dose-response curve was obtained. Then the norepinephrine was thoroughly washed off with Kreb's solution to recover the aorta stability. After the equilibrum was reached again for at least 60 minutes, different concentrations as 10^−7, 10^−6, 10^−5 M of test compounds were added. 30 minutes later, cumulative administration of norepinephrine from […] were carried out again, and another new cumulative dose-response curve was obtained. Administration of norepinephrine started from concentration 1×10^−10 M, and the concentration was raised 0.5 log each time. Cumulative administration interval was when the previous concentration reached its greatest effect, the next concentration would be immediately given. The time interval was approximately 3˜5 minutes, and the EC50 value could be obtained. From Schild plots, the pA2 of test compounds could be found. Calculation of pA2 value: similar to calculation method on isolated right atrium.

Calcium = assay: Isolated Wistar rat thoracic aorta, antagonism of CaCl2-induced contraction; details: vs CaCl2
Protocol: as §3
After thoracic aorta had reached equilibrium in the tissue trough, cumulative administration of CaCl2 from […] caused the blood vessel contract to increase tension continuously, and a cumulative dose-response curve was obtained. Then the CaCl2 was thoroughly washed off with Kreb's solution to recover the aorta stability. After the equilibrum was reached again for at east 60 minutes, different concentrations as 10^−8, 10^−7, 10^−6 M of test compounds were added. 30 minutes later, cumulative administration of CaCl2 from 3×10^−5˜10^−2 M were carried out again, and another new cumulative dose-response curve was obtained. Cumulative administration interval was when the previous concentration reached its greatest effect, the next concentration would be immediately given. The time interval was approximately 3˜5 minutes, and the EC50 value could be obtained. From Schild plots, the pA2 of test compounds could be found. Calculation of pA2 value: similar to calculation method on isolated right atrium.

| β1 Slope of Schild plot, Right atrium (β1 [2]) | β1 pA2 value, Right atrium (β1 [2]) | β1 Slope of Schild plot, Left atrium (β1 [3]) | β1 pA2 value, Left atrium (β1 [3]) | β2 Slope of Schild plot, Trachea (β2) | β2 pA2 value, Trachea (β2) | Structure (SMILES) | Decrease of blood pressure [1] [mmHg] | α1 pA2 value, Aorta (α1) | Calcium PKCa^−1 value, Aorta (Calcium) |
| --- | --- | --- | --- | --- | --- | --- | --- | --- | --- |
| (0.97 ± 0.10) | 6.61 ± 0.11 | (0.83 ± 0.06) | 6.81 ± 0.08 | (0.85 ± 0.03) | 6.48 ± 0.07 | COC(=O)C1=C(C)NC(C)=C(C(=O)OC)C1c1ccc(OCC(O)CNCCOc2ccccc2OC)cc1 (stereo not drawn) [Labedipinedilol-B] | 60 ± 15 | 7.55 ± 0.05 | 8.02 ± 0.04 |
| (1.12 ± 0.06) | 6.24 ± 0.06 | (1.07 ± 0.05) | 6.15 ± 0.09 | (0.65 ± 0.03) | 5.07 ± 0.12 | COC(=O)C1=C(C)NC(C)=C(C(=O)OC)C1c1ccc(OCC(O)CNCCOc2ccccc2Cl)c(OC)c1 (stereo not drawn) [Labedipinedilol-E] | 58 ± 7 | 8.46 ± 0.05 | 8.08 ± 0.04 |
| (1.02 ± 0.04) | 7.01 ± 0.09 | (0.99 ± 0.03) | 7.23 ± 0.07 | (0.92 ± 0.02) | 5.54 ± 0.16 | COC(=O)C1=C(C)NC(C)=C(C(=O)OC)C1c1ccc(OCC(O)CN2CCN(c3ccccc3Cl)CC2)c(OC)c1 (stereo not drawn) [Labedipinedilol-C] | 50 ± 17 | 6.87 ± 0.08 | 8.12 ± 0.04 |

| Structure (SMILES) | β1 Slope of Schild plot, Right atrium (β1 [2]) | β1 pA2 value, Right atrium (β1 [2]) | β1 Slope of Schild plot, Left atrium (β1 [3]) | β1 pA2 value, Left atrium (β1 [3]) | β2 Slope of Schild plot, Trachea (β2) | β2 pA2 value, Trachea (β2) | Decrease of blood pressure [1] [mmHg] | α1 pA2 value, Aorta (α1) | Calcium PKCa^−1 value, Aorta (Calcium) |
| --- | --- | --- | --- | --- | --- | --- | --- | --- | --- |
| COC(=O)C1=C(C)NC(C)=C(C(=O)OC)C1c1ccc(OCC(O)CNCCOc2ccccc2C)c(OC)c1 (stereo not drawn) [Labedipinedilol-D] | (0.84 ± 0.03) | 7.23 ± 0.03 | (1.12 ± 0.04) | 6.31 ± 0.12 | (1.10 ± 0.06) | 5.70 ± 0.06 | 55 ± 9 | 7.23 ± 0.05 | 8.23 ± 0.06 |
